Values of other authors, collected in patent US7855206B2, “Tricyclic heteroaromatic compounds as dipeptidyl peptidase-IV inhibitors for the treatment or prevention of diabetes” (Merck Sharp & Dohme Corp., priority 2006, dated 2010).

Assays:
[1] = system: cardiac allograft in rats; conditions: doubled from day 7
hematopoiesis in mouse = conditions: cyclophosphamide-induced neutropenia
[2] = system: GRF degradation in plasma

CC(C)N1CCC(c2ccccc2)(c2ccccc2)CC1 [Prodipine, Pro-Pro-diphenyl-phosphonate]
cardiac allograft survival [1]: 14 day

CC(C)[C@H](N)C(=O)N1CCC[C@H]1B(O)O [Val-Boro-Pro]
effect on hematopoiesis (hematopoiesis in mouse): stimulated hematopoiesis

CC[C@H](C)[C@H](N)C(=O)N1CCC[C@H]1C(=O)N[C@H](C(=O)O)[C@@H](C)CC [diprotin A]
effect on degradation of GRF to GRF[3-44] [2]: prevented
